Source: US6680342B2, “Methods and compositions for inhibiting the proliferation of prostate cancer cells” (priority 2001, dated 2004)

Legend:
Sp1 = assay: Western blot of Sp1, LNCaP cells; type: cell-based, human
Method: (§3) Both cell lines were propagated in 24-well, 60 or 100 mm culture dishes at the desired density in RPMI 1640 (Mediatech, Herndon, Va.) supplemented with 5% fetal calf serum (FCS) (Biofluids, Rockville, Md.) at 37° C. and 5% CO2 until reaching 50-70% confluence.
(§4) LNCaP or LAPC-4 cells were plated in 10 cm dishes at 9×10^5 cells per dish in RPMI 1640 and 5% FCS. […] Cells were harvested at designated times, and the whole cell lysate was prepared according to manufacturer's instructions (Santa Cruz, Santa Cruz, Calif.). […] Protein levels were measured with a BioRad DC protein assay (BioRad, Hercules, Calif.). Protein samples (20 μg) were loaded into precast 4-12% NuPage gels (Novex, San Diego, Calif.), run with MOPS buffer, and transferred onto a nitrocellulose membrane (BioRad) according to the manufacturer's instructions. A Ponceau S staining was performed for total protein staining and visualized with a digital camera. The membranes were blocked overnight at 4° C. in TBST (20 mM Tris-HCl (pH 8.0), 137 mM NaCl, and 0.1% Tween 20) and 5% dry milk. The membranes were washed 3 times for ten min each with TBST. Primary antibody for the androgen receptor (1:2,000 dilution) (Pharmingen, San Diego, Calif.), Sp1 (1:2,000 dilution) (Santa Cruz) or heat shock protein70 (Hsp70) (1:1,000 diultion) (StressGene Biotechnologies, Victoria, B.C.) was incubated at room temperature for 1 hr. […]

[1] = tested on: heat shock protein70 (Hsp70); assay: Western blot of heat shock protein70, LNCaP cells; type: cell-based, human
Method: as §3, §4

PSA [2] = assay: PSA protein in spent media, immunometric assay, LNCaP cells; type: cell-based, human; conditions: 5 days, with or without Mib, normalized by MTS
Method: (§1) LNCaP cells were seeded at 2×10^4 cells per well in 24 well plates. […] After a 5 day incubation, the spent media were harvested, and the levels of PSA and hK2 quantified by an immunometric assay as described previously (Hsieh et al., 1997, Cancer Res., 57:2651-6). MTS assays were performed (Promega, Madison, Wis.) as per the manufacturer's instructions. The protein levels of PSA and hK2 were normalized by cell density measurements with the MTS assay.

PSA [3] = assay: PSA protein in spent media, immunometric assay, LAPC-4 cells; type: cell-based, human; conditions: LAPC-4, 5 days, with or without Mib, normalized
hK2 [4] = assay: hK2 protein in spent media, immunometric assay, LNCaP cells; type: cell-based, human; conditions: 5 days, with or without Mib, normalized by MTS
Method: as §1

hK2 [5] = assay: hK2 protein in spent media, immunometric assay, LAPC-4 cells; type: cell-based, human; conditions: LAPC-4, 5 days, with or without Mib, normalized
PSA [6] = assay: Northern blot of PSA mRNA, LNCaP cells; type: cell-based, human; conditions: in the presence of androgen, 24 hrs
Method: (§2) The films were autoradiographed at −70° C. overnight.

NKX3.1 = assay: Northern blot of NKX3.1 mRNA, LNCaP cells; type: cell-based, human; conditions: in the presence of androgen, 24 hrs
Method: as §2

ODC = assay: Northern blot of ODC mRNA, LNCaP cells; type: cell-based, human; conditions: in the presence of androgen, 24 hrs
Method: as §2

male and female rats = conditions: approximately 40 to 1900 mg/kg/day; cited from earlier work

O=c1c(O)c(-c2ccc(O)c(O)c2)oc2cc(O)cc(O)c12 [quercetin, Quercetin]
Sp1 protein level (Sp1): not affected | Hsp70 protein level [1]: not affected | PSA protein levels (PSA [2]): inhibits both PSA and hK2 protein levels in a dose-dependent manner | PSA protein levels (PSA [3]): inhibits both PSA and hK2 protein levels in a dose-dependent manner | hK2 protein levels (hK2 [4]): inhibits both PSA and hK2 protein levels in a dose-dependent manner | hK2 protein levels (hK2 [5]): inhibits both PSA and hK2 protein levels in a dose-dependent manner | PSA mRNA levels (PSA [6]): greatly reduced | NKX3.1 mRNA levels (NKX3.1): greatly reduced | ODC mRNA levels (ODC): greatly reduced | effects on survival (male and female rats): no treatment related effects on survival
